System: miR-155
Test: Ribonuclease activity assay with DC or ON and RNase H, miR-155
Format: biochemical
Experimental: It is known that DNA-like antisense oligonucleotides after binding to target RNAs form a substrate for intracellular endonuclease RNases H. RNA hydrolysis in RNA-DNA heteroduplex by RNase H1 occurs at a distance of 6–10 nucleotides from the 5′-end of RNA (approximately one turn of the helix). Our design of the Dual conjugates here was carried out in such a way to ensure that their heteroduplexes with the matching miRNA sequences could serve as potential substrates for RNase H. To achieve that, we ensured that the length of the oligonucleotide recognition motifs A and B within the DC was 8–10 nt, which was expected to be sufficient for interaction and cleavage by RNase H (see Figure 1 and Table 1). As indicated above, a few adenine aromatic basis within each recognition motifs A and B were replaced with 2-aminoadenines to enhance the hybridization ability of the DC with miRNA. […] In order to verify this, as well as to evaluate the ability of RNase H to contribute to the miRNA cleavage catalyzed by DC, we studied the kinetics of the target miRNA cleavage performed (1) by the DC alone; (2) by RNase H, when the target miRNA was hybridized with the nonconjugated Dual oligonucleotide (ON); and (3) by both DC and RNase H present in the same reaction mixture. The study was performed against miR-17, miR-155 and miR-21 using a 20-fold excess of DCs or respective oligonucleotides over the matching miRNA (see Table 1 for sequences).
Figure 6 Cleavage kinetics of 5′-[^32P]-labeled miRNAs by DCs and/or RNase H. (a,d,g). […]
The reaction mixture (10 µL) containing 20 mM Tris-HCl, pH 7.8, 40 mM KCl, 8 mM MgCl2, 1 mM DTT, 0.02 mg/mL BSA, 800 cpm (Cherenkov’s counting) of [^32P]-miRNA, 1 µM unlabeled miRNA, 20 µM either DC or Dual oligonucleotide was incubated at 37 °C for 20 min then RNase H (5 or 100 U/mL) was added and the mixture was further incubated for 48 h. Aliquots were taken at 0, 1, 6, 24 and 48 h then the reaction was quenched, RNA cleavage products were collected and analyzed as described above.

With “ACCCCTAT–linker 1–[GRLRL]2–linker 2–TTAGCATTAA [miRNA-155-DC, Dual oligonucleotide-peptide conjugate targeted to miR-155: catalytic peptide [LRLRG]2 between two 2-aminoadenine-containing oligodeoxyribonucleotides]” the “maximum extent of cleavage with DC and RNase H relative to DC alone” value was “about 2 fold”, the “total extent of cleavage in the complex with DC relative to the miRNA/ON complex” value (RNase H 5 u/mL) was ~1.5 fold and the “maximum extent of cleavage with DC and RNase H” value (miRNA 1 µM, DC 20 µM, buffer (2), 37 °C, plateau) was 75%.

Source: PMC7287882, “Dual miRNases for Triple Incision of miRNA Target: Design Concept and Catalytic Performance” (Molecules, 2020)
